Test results published in paper PMC10743895, “Synthesis of 1,3,4-Thiadiazole Derivatives and Their Anticancer Evaluation” (International Journal of Molecular Sciences, 2023).
Where two headings read alike, the source gives them in different places.

How the values were obtained:
[1] = system: LoVo cells; assay: MTS cell viability assay, LoVo cells; format: cell-based, human; details: Homo sapiens, LoVo
Procedure: (§1) To determine the optimal working concentration, dose-effect curves were made for each compound in the range of concentrations between 6.25 and 400 μM.
(§2) LoVo (human colorectal adenocarcinoma) human cancer cell line and HUVEC normal cells were purchased from American Type Culture Collection (ATCC). The MCF-7 human breast adenocarcinoma cell line was provided from European Collection of Authenticated Cell Cultures (ECACC). HUVEC normal cells, isolated from the vascular endothelium of an umbilical cord, were used as a reference. Adherent cells were maintained in culture in Dulbecco’s modified Eagle medium/nutrient mixture F-12 (DMEM:F12) with 2 mM of L-glutamine, 10% fetal bovine serum, 100 units/mL of penicillin and 100 μg/mL of streptomycin, and incubated at 37 °C in a 5% CO2-humidified atmosphere. After 24 h, adherent cells were treated with different concentrations of the compounds for different periods of time. Cis-Pt and DOX, conventional oncology drugs used in cancer treatments, can be used as a positive control of the experiments. […] Then, cells were detached with a nonenzymatic solution of phosphate-buffered saline (PBS)/1 mM EDTA and washed twice in PBS.
(§3) The study utilized a colorimetric assay based on MTS (chemically known as 3-(4,5-dimethylthiazol-2-yl)-5-(3-carboxymethoxyphenyl)-2-(4-sulfophenyl)-2H-tetrazolium) and called CellTiter 96 Aqueous One Solution Cell proliferation Assay (Promega, Madison, WI, USA) in order to measure cell viability. The assay was performed in triplicate in 96-well microtiter plates with a flat bottom (Falcon). A number of 1 × 10^4 cells/well were cultured in 100 μL for 24 h, culture supernatants were discarded, and then cells were treated for 24 and 48 h with increasing concentrations of the tested compound. After the end of the incubation time, 20 μL of the reagent containing MTS and PES (phenazine ethosulfate) was added in each well. Plates were incubated for 4 h at 37 °C, with mild agitation every 15 min. The reduction in the tetrazolium compound to formazan was spectrophotometrically measured at λ = 492 nm using a Dynex plate reader (DYNEX Technologies MRS, Chantilly, VA, USA). The percentage of viability compared to untreated cells (considered 100% viable) was calculated with the formula:(1) Cell viability (%)=Absorbance treated cells−Absorbance culture medium/Absorbance untreated cells−Absorbance culture medium×100
(§4) The cell viability compared was calculated and data were expressed as a mean ± standard deviation (SD) of the experiments and obtained in triplicate (n = 3).

[2] = system: MCF-7 cells; assay: MTS cell viability assay, MCF-7 cells; format: cell-based, human; details: Homo sapiens
Procedure: as §1, §2, §3, §4

[3] = system: HUVEC normal cells; assay: MTS cell viability assay, HUVEC normal cells; format: cell-based, human; details: Homo sapiens, HUVEC
Procedure: as §1, §2, §3, §4

[4] = system: LoVo cells; assay: Apoptosis assay (Annexin V-FITC/PI flow cytometry), LoVo; format: cell-based, human
Procedure: (§5) Two reference concentrations, 5 μM and 50 μM, and two distinct treatment durations, 24 and 48 h, were employed to assess the influence of the test compounds on apoptosis in both normal and tumor cells. […] HUVEC cells were exposed to both drugs.
(§6) The apoptosis assay was performed according to the manufacturer’s instructions using the Annexin V-FITC kit (BD Biosciences, San Jose, CA, USA). Cells untreated and treated with the experimental compound were suspended in a cold binding buffer. The percentages of apoptotic cells were determined by double staining with Annexin V-FITC/PI. In each tube was added 400 μL of Annexin V binding buffer and the 5000 cells/sample for 15 min in the dark at room temperature. The cells were analyzed using a FACSCantoII flow-cytometer (Becton Dickinson—BD, La Jolla, CA, USA). The analysis was performed using DIVA 6.2 software to discriminate viable cells (FITC-PI-) from necrotic cells (FITC + PI+), and early apoptosis (FITC + PI) from late apoptosis.

[5] = system: MCF-7; set-up: method as in earlier work; details: ref 16 (Yang et al.); cited from earlier work
[6] = system: Daphnia magna; assay: Daphnia magna toxicity assay; format: in vivo; details: up to 200 µM
Procedure: (§7) The Daphnia magna bioassay results are presented in Table 3 as the maximum average percentage of lethality (L%) registered for each compound and the median lethal concentration (LC50) if the values permitted its calculation.
(§8) Daphnia magna Straus is parthenogenetically maintained at ‘Carol Davila’ University’s Department of Pharmaceutical Botany and Cell Biology. The culture was consistently maintained at a temperature of 25 °C, with a 16-h light and 8-h dark photoperiod. To ensure consistency, young daphnids were carefully chosen based on their size and kept in an artificial medium for 24 h prior to the assessment. The bioassay involved 10 daphnids per replicate, using tissue culture plates with 12 wells from Greiner Bio-One. The experimental procedure followed the protocol described in previous studies.
(§9) Each determination was carried out in duplicate.

[7] = Daphnia magna toxicity assay; format: in vivo; details: Daphnia magna, in vivo; 48 h
Procedure: as §7, §8, §9

[8] = system: HUVEC cells; assay: Apoptosis assay (Annexin V-FITC/PI flow cytometry), HUVEC; format: cell-based, human
Procedure: as §5, §6

[9] = system: MCF-7 cells; assay: Apoptosis assay (Annexin V-FITC/PI flow cytometry), MCF-7; format: cell-based, human
Procedure: as §5, §6

O=C(Nc1nnc(-c2ccccc2)s1)c1ccccc1 [3b, N-(5-Phenyl-1,3,4-thiadiazol-2-yl)benzamide]
IC50 ([1]; read-out: IC50 (48 h) LoVo, 48 h exposure): 62.5 µM | viability at 200 µM ([1]; 24 h, 200 μM, read-out: viability of LoVo tumor cells): < 50% | IC50 ([1]; 24 h exposure, read-out: IC50 (24 h) LoVo): 174 µM | IC50 ([2]; MCF7, read-out: IC50 (48 h) MCF-7, 48 h exposure): > 400 µM | IC50 ([2]; MCF7, 24 h exposure, read-out: IC50 (24 h) MCF-7): > 400 µM | IC50 ([3]; read-out: IC50 (48 h) HUVEC, 48 h exposure): > 400 µM | IC50 ([3]; 24 h exposure, read-out: IC50 (24 h) HUVEC): > 400 µM | Total Apoptosis (%) 24 h LoVo ([4]; 5 μM): 12.5% | Total Apoptosis (%) 48 h LoVo ([4]; 5 μM): 22.2% | Total Apoptosis (%) 24 h LoVo ([4]; 50 μM): 12.6% | Total Apoptosis (%) 48 h LoVo ([4]; 50 μM): 20.9% | IC50 [5]: 5.87 µM | Maximum Average L% (lethality) ([6]; 24 h): 5% | Maximum Average L% (lethality) ([6]; 48 h): 45% | LC50 at 48 h [7]: 228 µM | Total Apoptosis (%) 24 h HUVEC ([8]; 5 μM): 17.8% | Total Apoptosis (%) 48 h HUVEC ([8]; 5 μM): 15.3% | Total Apoptosis (%) 24 h HUVEC ([8]; 50 μM): 17.0% | Total Apoptosis (%) 48 h HUVEC ([8]; 50 μM): 15.9% | Total Apoptosis (%) 24 h MCF-7 ([9]; 5 μM): 19.2% | Total Apoptosis (%) 48 h MCF-7 ([9]; 5 μM): 43.7% | Total Apoptosis (%) 24 h MCF-7 ([9]; 50 μM): 16.4% | Total Apoptosis (%) 48 h MCF-7 ([9]; 50 μM): 41.3%
